Earlier results, collected in patent publication US4610817A, “N-acyl derivatives of peptides, their preparation and their use in the treatment of disorders, and agents for this purpose” (BASF Aktiengesellschaft, priority 1983, dated 1986).
Where a SMILES comes first, the peptide text is derived from it.

Tested on: tremor, rigor and akinesia in Parkinson patients
Settings: alone or in combination with L-dopa

CC(C)C[C@H](NC(=O)[C@@H]1CCCN1)C(=O)NCC(N)=O [MIF, L-Pro-L-Leu-Gly-NH2] (H-Pro-Leu-Gly-NH2)
clinical effect on Parkinson symptoms: advantageous effect on tremor, rigor and akinesia
